In patent EP0719267B1, “SECOND MESSENGER CELL SIGNALING INHIBITORS” (CELL THERAPEUTICS, INC., priority 1993, dated 1994):
One block for each molecule: values may come before it.

Legend:
[1] = tested on: murine cytotoxic T-cell line, CT6; assay: Cytokine-induced proliferation of the cytotoxic T-cell line CT6 / CT-6.1; type: cell-based; conditions: added one hour prior to IL-2, thymidine at 48 hours
Protocol: Another assay in this example was used to determine inhibitive activity of the inventive compounds on direct IL-2-induced proliferation in a murine cytotoxic T-cell line, CT6. The CT6 cell line is an IL-2-dependent cell line. IL-2 was removed from the medium for 24 hours prior to stimulation. […] 49, 50, 45, 43 or 41 were added at various concentrations. The cells were stimulated with IL-2 and amount of tritiated thymidine dye incorporated was measured 48 hours later.
In another related assay, inhibitory effects on CT6 cell proliferation is examined. CT6 cells are a murine IL-2 dependent, cytotoxic T cell line that proliferate in response to murine IL-2 (15 U/ml).
CT-6.1 cells were starved overnight and stimulated with IL-2 (20 ng/ml). Twenty hours later, cells were labeled for 4 hours with ^3H-TdR and counted by liquid scintillation.
CT6.1 cells were cultured with IL-2 with or without the addition of inventive compound no. 45 (2 µM) and viable cells counted for up to 8 days. On day 4, two cultures previously incubated with compound no. 45, were washed and recultured with fresh IL-2 with or without compound no. 45 (2 µM).
Procedurally, CT-6.1 cells were starved overnight and stimulated with either IL-2 (20 ng/ml), IL-4 (50 ng/ml) or IL-7 (25 ng/ml). ^3H-TdR was added at 20 hours, cells were harvested 4 hours later, and the incorporation of ^3H-TdR was determined.

Balb/3T3 cells = assay: PDGF-induced proliferation of Balb/3T3 cells; type: cell-based, murine
Protocol: Balb/3T3 cells respond vigorously to PDGF stimulation, and are useful in vitro models for further study of PDGF-induced proliferation. Disregulated PDGF-proliferative response has been linked to a variety of diseases, including, e.g., restenosis, atherosclerosis, fibrosis, and tumor cell angiogenesis. Cells were plated in low serum-containing medium for 24 hours prior to stimulation with various concentrations of inventive compound no. 45. PDGF-BB was added at constant 10 µM concentrations. Tritiated thymidine was added and cells harvested for scintillation counting 24 hours later. Figure 15 illustrates a dose response curve from this assay, including an IC50 value of approximately 0.08 µM, exemplifying inhibitory activity of the tested compound.
In another investigation similar to the Balb/3T3 proliferation assay of Example 32, IC50 and ID50 values for inventive compounds nos. 70, 45, 59 and 58 were determined. LD50 values were determined using a cytotoxicity assay, as in Example 32. In these assays, Balb/3T3 cells, stimulated with PDGF and treated with one of the above inventive compounds in a manner identical to the tritiated thymidine procedure above, were incubated instead with a viable dye BCECF, a fluorescent dye. Fluorescence was measured using a fluorescent plate reader. […] Figure 17 illustrates assay results by comparing […] value against LD50 values for the inventive compounds tested. Most compounds tested were non-cytotoxic yet were significant inhibitors of proliferation.
Inventive compounds nos. 77,7 and 78 were added at various concentrations one hour prior to PDGF stimulation. PDGF-BB was added at a constant 10 µM concentrations along with tritiated thymidine. The cells were allowed to incubate for one day, following addition of PDGF and tritiated thymidine. 24 Hours later, the cells were harvested and counted by liquid scintillation counting. Results for compounds nos.77, 7 and 78 are shown in figures 26A, 26B and 26C, respectively. Background counts were approximately 1% of control levels.
Results obtained for compound no. 50 in the PDGF-induced proliferation of Balb/3T3 cells (Example 32), reported in figure 28, illustrate the inhibitive properties of this compound on proliferation induced by PDGF, representing significant inhibition at concentrations as low as 2 µM. […] 50, are capable of reducing tumor cell growth by blocking oncogene-induced events.
Figure 66 reports that inventive compound no. 45 inhibited PDGF-induced murine BALB/3T3 proliferation. Procedurally, cells were rested overnight in 0.2% serum and stimulated with 25 ng/ml PDGF. Compound no. 45 was added 1 hour prior to stimulation. Cells were pulsed with ^3H-TdR 24 hours later and harvested for scintillation counting 4 hours later.
Figures 66A and 66B are a dose response and cytoxicity curves, respectively, for inhibition of proliferation in Balb/3T3 cells by inventive compound no. 58. In the assay protocol, cells were starved overnight in 0.5% serum containing medium, followed by stimulation with 20 ng/ml PDGF for 24 hours. The cells were labeled with ^3H-TdR for 4 hours and harvested and counted by scintillation. Figure 66B illustrates that inventive compound no.
Figure 68 illustrates an effect of the delayed addition of inventive compound no. 58 to Balb/3T3 proliferation in response to PDGF-BB. Cells were stimulated with PDGF (20 ng/ml) and inventive compound no. 58 added either simultaneous with PDGF (0) or at various times after addition of PDGF, up to 6 hours later. At 24 hours, the cells were pulsed with ^3H-TdR and counted by scintillation four hours later. […] 58 was added as late as 20 hours after PDGF.
Figure 69 illustrates that inventive compound no. […] In the assay protocol, cells were serum starved for 24 hours before adding either 20 ng/ml PDGF or 10% serum. The cells were pulsed with ^3HTdR 24 hours later. Inventive compound no.

[2] = tested on: murine thymocyte proliferation; assay: Thymocyte proliferation co-stimulated by ConA and IL-2 (tritiated thymidine); type: cell-based, Balb/C mice; conditions: Mus musculus, Thymocyte, 96 h; ConA and IL-2 (15 U/ml), 4 days
Protocol: (§1) ConA, used to activate CD3, induces T-cell proliferation and differentiation. Thymuses, obtained from normal, female Balb/C mice, were dissociated and plated into 96-well plates at a density of 2 x 10^5 cells/well. ConA (0.25 mg/ml) and IL-2 (15 U/ml) were added to the wells. The cells were incubated for 4 days at 37°C. On day 4, the cells were pulsed with tritiated thymidine and incubated for an additional 4 hours. The amount of tritiated thymidine dye incorporated by the harvested cells was determined in a liquid scintillation counter. Drug doses (shown in figs. 1A and 1B) were added two hours prior to ConA and IL-2 activation.
as §1, with “Thymuses,” for “ConA, used to activate CD3, induces T-cell proliferation and differentiation. Thymuses,”, “37 °C.” for “37°C.”, “Doses” for “Drug doses”, “26A, 26B” for “1A”, “26C)” for “1B)”
In another in vitro protocol, thymocyte proliferation was induced by sub-mitogenic doses of Con A (0.25 µg/ml) and IL-2 (20 ng/ml). Cells were stimulated for 96 hours, prior to addition of ^3H-TdR for 4 hours. The cells were harvested and incorporation of ^3H-TdR was determined.
45 on co-stimulated thymocyte proliferation. In an assay procedure, murine thymocytes were stimulated with ConA and IL-2 with 1 µM compound no. 45 added either 1 hour prior to IL-2 (-1), simultaneous with IL-2 (0) or at various times following IL-2 addition (1-92 hour). At 92 hours the thymocytes were pulsed with ^3H-TdR, harvested and counted by scintillation 4 hours later.

CMV promoter activity = assay: microbe, parasite or virus in culture; type: cell-based; conditions: transformed (adenovirus) cells
Text: This example illustrates data of proliferative activity of various inventive compounds for inducing CMV promoter activity. The CMV promoter assay measures gene transcription and translation activity wherein any active compounds will have cytotoxic activity for inhibiting cellular protein synthesis in transformed (adenovirus) cells. Compound no. […]

[3] = tested on: proliferative PMBC response to allogeneic stimulation; assay: Two-way mixed lymphocyte reaction; type: cell-based; conditions: Lymphocyte; figs. 2A-2C
Text: This example illustrates therapeutic potential for various autoimmune and inflammatory diseases of the inventive compounds by comparing potency (inhibitive activity) with cytotoxicity data obtained using the following indicative assay procedures. In a mixed lymphocyte reaction assay of compounds nos. […] Compounds nos. […] 2A and 2B. Both compounds nos. […] 2C.
Compound no. […] Compound no.

mast cell degranulation = assay: Serotonin release assay for inhibition of mast cell degranulation; type: cell-based; conditions: Concentration 50 µM
Text: This assay provides an in vitro model for an allergy and asthma therapeutic product. […]

Human stromal cells = assay: Stromal cell proliferation in response to PDGF-BB; type: cell-based; conditions: 50 ng/ml PDGF-BB
Protocol: This assay is useful for predicting therapeutic activity for preventing or treating restenosis, atherosclerosis and coronary artery disease. Human stromal cells were starved in serum-free media for one day and then stimulated with 50 ng/ml PDGF-BB. Inventive compounds, at various concentrations, were added one hour prior to PDGF stimulation. PDGF and tritiated thymidine were added and the cells allowed to incubate for one day, following addition of the PDGF and thymidine. 24 Hours later, the cells were harvested and counted by liquid scintillation counting. Results for compounds nos. Background counts (i.e., starved cells) were approximately 1% of control levels. […] 30, 28, 29, 32 and 31, respectively.

SMILES: CCCCCCCCCCNCC(O)CCCCCCCn1c(=O)c2c(ncn2C)n(C)c1=O (centres unmarked) [compound 41, 1-(9-Decylamino-8-hydroxynonyl)-3,7-dimethylxanthine]
inhibition of direct IL-2-induced proliferation [1]: inhibited direct IL-2-induced CT6 proliferation

SMILES: CCCCCCCCCCCCCCNCC(O)CCCCCCCn1c(=O)c2c(ncn2C)n(C)c1=O (centres unmarked) [compound 43, 1-(9-Tetradecylamino-8-hydroxynonyl)-3,7-dimethylxanthine]
inhibition of direct IL-2-induced proliferation [1]: inhibited direct IL-2-induced CT6 proliferation

SMILES: CCCCCCCCNCC(O)CCCCCCCCC(=O)O (centres unmarked) [compound 78, 11-Octylamino-10-hydroxyundecanoic acid]
inhibition of PDGF-induced proliferation (Balb/3T3 cells): inhibit Balb/3T3 proliferation
IC50 [2]: 12.4 µM

SMILES: CCCCCCCCNCC(O)CCCCCCCCC(=O)NC (centres unmarked) [compound 79, 11-Octylamino-10-hydroxyundecanoic acid N-methyl amide]
IC50 [2]: 10.6 µM

SMILES: CCCCCCCCNCC(O)CCCCCCCCC(=O)N(C)C (centres unmarked) [compound 80, 11-Octylamino-10-hydroxyundecanoic acid N,N-dimethyl amide]
IC50 [2]: 3.8 µM

IC50 (CMV promoter activity): > 500 µM
SMILES: CCCNCC(O)CCCCNC(=O)CCCC(=O)NCCC (centres unmarked) [compound no. 5, N^2-(5-hydroxy-6-(N^3-propyl)aminohexyl)-(N^1-propyl)glutaric acid]
IC50 [3]: > 250 µM

SMILES: CCCCCCCCNCC(O)CCCCCCCCCO (centres unmarked) [compound no. 7, 1-Octylamino-2,11-undecadiol]
inhibition of PDGF-induced proliferation (Balb/3T3 cells): inhibit Balb/3T3 proliferation

IC50 (CMV promoter activity): > 500 µM
SMILES: CCCNCC(O)CCCCn1c(=O)ccn(C)c1=O (centres unmarked) [compound no. 19, 3-(5-hydroxy-6-(N-propyl)aminohexyl)-1-methyluracil]
% Inhibition (mast cell degranulation): inactive

IC50 (CMV promoter activity): > 500 µM
SMILES: CCCNCC(O)CCCCn1c(=O)c(C)cn(C)c1=O (centres unmarked) [compound no. 26, 3-(6-Propylamino-5-hydroxyhexyl)-1-methylthymine]
IC50 [3]: > 250 µM

IC50 (CMV promoter activity): > 100 µM
SMILES: Cn1cnc2c1c(=O)n(CCCCC(O)CNCCCCc1ccccc1)c(=O)n2C (centres unmarked) [compound no. 29, 1-(5-hydroxy-6-(N-(4-phenyl)butyl)aminohexyl)-3,7-dimethylxanthine]
IC50 (Human stromal cells): 40 µM

IC50 (CMV promoter activity): > 100 µM
SMILES: Cn1cnc2c1c(=O)n(CCCCC(O)CNCC1CCCCC1)c(=O)n2C (centres unmarked) [compound no. 31, 1-(5-hydroxy-6-(N-cyclohexylmethyl)aminohexyl)-3,7-dimethylxanthine]
IC50 (Human stromal cells): > 50 µM

IC50 (CMV promoter activity): > 100 µM
SMILES: Cn1cnc2c1c(=O)n(CCCCC(O)CNCCCCCCO)c(=O)n2C (centres unmarked) [compound no. 32, 1-(5-hydroxy-6-(N-(6-hydroxy)hexyl)aminohexyl)-3,7-dimethylxanthine]
IC50 (Human stromal cells): > 50 µM

SMILES: CCCCCCCCNCC(O)CCCCCCCCCN(C)C(C)=O (centres unmarked) [compound no. 77]
inhibition of PDGF-induced proliferation (Balb/3T3 cells): inhibit Balb/3T3 proliferation
